Assay results: patent US6960613B2, “Treatment of neurotic disorders” (H. Lundbeck A/S, priority 1999, dated 2005)

Experiments:
[1] = tested on: footshock-induced ultrasonic vocalisation; assay: Footshock-induced ultrasonic vocalisation test in adult rats; assay type: in vivo, rat; conditions: male Wistar rats, drug given 30 min before test, four 1.0 mA footshocks
Text: The Footshock-induced Vocalisation Test in Adult Rats. The footshock-induced vocalisation test in adult rats (described in detail in Sánchez C., Effect of serotonergic drugs on footshock-induced ultrasonic vocalization in adult male rats. Behav. Pharmacol. 1993; 4:267-277) is a test for anxiolytic and anti-panic effects. Male rats (Wistar WU, Charles River, Germany), weighing 150-175 g at the beginning of the study were used. Briefly, test cages (22 cm×22 cm×22 cm) made of grey Perspex and equipped with a metal grid floor were used. Footshocks were delivered from a two pole shocker and a microphone sensitive to ultrasounds in the range of 20-30 kHz was placed in the centre of the lid of the test cage. The ultrasounds were sent from the microphone to a preamplifier and converted from AC signals to DC signals in a signal rectifier. The accumulated time, in which the voltage of the rectified signal was larger than the voltage of a previously determined threshold level, was recorded. Twenty-four hours before the first test session the animals were primed. A rat was placed in each test cage and received, immediately thereafter, four 1.0 mA inescapable footshocks each of a duration of 10 sec and with an intershock interval of 5 sec. The animals were left in the test cage for 6 min after the last shock. […] The total time spent on vocalisation was recorded. […]

[2] = tested on: schedule-induced polydipsia (water intake); assay: Schedule-induced polydipsia in rats; assay type: in vivo, rat; conditions: male wistar rats, oral 60 min prior to testing; Citalopram 40 mg/kg, Lu 26-054 20 mg/kg
Text: Schedule-induced Polydipsia Food deprived rats exposed to a procedure in which food is delivered intermittently will drink large amounts of water if given the opportunity to do so. This behavioural phenomenon is called schedule-induced polydipsia and can be considered as an excessive expression of a normal behaviour. Schedule-induced polydipsia is regarded as a model of obsessive-compulsive disorder (Woods et al. 1993). Male wistar rats (Møllegard) housed in pairs and kept on a food-restricted diet (80% of normal body weight) for 2 weeks before the start of testing and throughout the duration of testing. To induce polydipsia rats were placed in test chambers where a pellet dispenser automatically dispensed one 60 mg food pellet every 60 seconds. Water was available at all times in the test chamber. Rats were tested 4-5 times per week, after 3-4 weeks training 70% of the rats were drinking >10 ml per 30 min test session. Once the rats had attained a steady drinking level compounds could be tested. Citalopram (40 mg/kg) or Lu 26-054 (20 mg/kg) were administered orally 60 min prior to testing and at 10:00 on the non-test days. The water intake was presented as a percentage of the pre-dosing (baseline) level.

[3] = tested on: mice black and white box behaviour; assay: Black and White Box Test in mice; assay type: in vivo, mouse; conditions: male mice, pretreatment time 30 min, test duration 5 min
Description: Black and White Box Test This is a test for anxiolytic effects. The test model is further described in Sánchez, C. (1995) Pharmacol. Toxicol. 77, 71-78. Male mice (Lundbeck strain, Charles River, Germany) weighing 30-35 g were housed in groups of 4 in macrolon cages type II under a reversed 12 h day/night cycle (lights off 7 p.m.). The mice were adapted to the reversed light/dark cycle for at least 3 weeks prior to testing. The room temperature (21±2° C.), relative humidity (55±5%), and air exchange (16 times per h) were automatically controlled. The animals had free access to commercial food pellets and water. The test box used was designed as described by Sánchez (1995) (supra). […] The lower row of photocells (2 cm above cage floor) detected horizontal locomotor activity (crossing, entries, and time in each compartment), whereas the upper row of photocells (5 cm above cage floor) detected rearing activity. The accumulated data for 1 min intervals were recorded from 4 test boxed simultaneously and stored in a Paradox data base. […] The test duration was 5 min and the number of rears and line crossings between squares in both the black and the white compartment, number of entries into the black compartment and time spent in the white compartment were assessed.

## CN(C)CCCC1(c2ccc(F)cc2)OCc2cc(C#N)ccc21 (racemic) [citalopram, reference compound]
[1]
  maximum effect, inhibition of vocalisation: 60-70%
[2]
  water intake (percentage of pre-dosing baseline level): without effect

## CN(C)CCC[C@@]1(c2ccc(F)cc2)OCc2cc(C#N)ccc21 [escitalopram, (S)-1-[3-(dimethyl-amino)propyl]-1-(4-fluorophenyl)-1,3-dihydro-5-isobenzofurancarbonitrile]
[3]
  effect in black and white box model: prominent effects
[1]
  inhibition of vocalisation: able to inhibit vocalisation completely
[2]
  water intake (percentage of pre-dosing baseline level): significant reduction in water intake
